Among the data in ChEMBL document CHEMBL5696442, “Discovery of type II inhibitors of TGFβ-activated kinase 1 (TAK1) and mitogen-activated protein kinase kinase kinase kinase 2 (MAP4K2)” (J Med Chem, 2015) are inhibition values, retold here.

Activity calls are given as the source filed them. The calls are words filed in the database; no cut-off is given here.

The inhibition is the drop in the measured response relative to a control, in per cent.

The target of assay [1] is T1, Serine/threonine-protein kinase D2 (Homo sapiens) (UniProt Q9BZL6).
T1 sequence (whole entry): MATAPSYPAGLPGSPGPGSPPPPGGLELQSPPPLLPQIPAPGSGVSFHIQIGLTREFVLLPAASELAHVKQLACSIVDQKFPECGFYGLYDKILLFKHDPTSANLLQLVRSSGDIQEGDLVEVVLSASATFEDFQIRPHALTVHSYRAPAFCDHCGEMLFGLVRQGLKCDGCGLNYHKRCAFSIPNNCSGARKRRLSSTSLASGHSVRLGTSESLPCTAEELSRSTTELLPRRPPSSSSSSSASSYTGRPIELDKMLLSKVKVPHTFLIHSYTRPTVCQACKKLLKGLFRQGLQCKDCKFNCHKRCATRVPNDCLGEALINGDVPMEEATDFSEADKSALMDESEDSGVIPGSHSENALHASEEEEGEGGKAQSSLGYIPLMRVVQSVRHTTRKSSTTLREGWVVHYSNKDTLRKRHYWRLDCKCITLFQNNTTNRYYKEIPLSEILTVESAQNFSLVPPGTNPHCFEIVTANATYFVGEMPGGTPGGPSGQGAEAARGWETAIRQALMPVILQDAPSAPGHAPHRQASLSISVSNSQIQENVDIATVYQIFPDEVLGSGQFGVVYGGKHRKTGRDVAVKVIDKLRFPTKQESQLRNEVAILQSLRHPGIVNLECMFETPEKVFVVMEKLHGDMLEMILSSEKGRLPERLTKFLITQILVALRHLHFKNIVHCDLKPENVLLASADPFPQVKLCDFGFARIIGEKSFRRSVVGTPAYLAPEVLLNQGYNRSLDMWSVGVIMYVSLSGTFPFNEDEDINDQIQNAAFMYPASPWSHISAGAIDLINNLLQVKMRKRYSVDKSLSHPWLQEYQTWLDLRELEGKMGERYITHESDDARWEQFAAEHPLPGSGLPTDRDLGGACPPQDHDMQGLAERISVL
The assay can be described thus: Inhibition of PKD2 Lys1 labeling site in human A-375 cells at 5 uM by KiNativ Profiling analysis relative to control. Format: cell-based.

The target in assay [2] is Serine/threonine-protein kinase 4 (Homo sapiens) (UniProt Q13043). Briefly: Inhibition of MST1 Lys2 labeling site harbouring DIKAGNILLNTEGHAK in human A-375 cells at 5 uM by KiNativ Profiling analysis relative to control.
Sequence of Serine/threonine-protein kinase 4 (Homo sapiens) (Q13043 whole entry, looked up): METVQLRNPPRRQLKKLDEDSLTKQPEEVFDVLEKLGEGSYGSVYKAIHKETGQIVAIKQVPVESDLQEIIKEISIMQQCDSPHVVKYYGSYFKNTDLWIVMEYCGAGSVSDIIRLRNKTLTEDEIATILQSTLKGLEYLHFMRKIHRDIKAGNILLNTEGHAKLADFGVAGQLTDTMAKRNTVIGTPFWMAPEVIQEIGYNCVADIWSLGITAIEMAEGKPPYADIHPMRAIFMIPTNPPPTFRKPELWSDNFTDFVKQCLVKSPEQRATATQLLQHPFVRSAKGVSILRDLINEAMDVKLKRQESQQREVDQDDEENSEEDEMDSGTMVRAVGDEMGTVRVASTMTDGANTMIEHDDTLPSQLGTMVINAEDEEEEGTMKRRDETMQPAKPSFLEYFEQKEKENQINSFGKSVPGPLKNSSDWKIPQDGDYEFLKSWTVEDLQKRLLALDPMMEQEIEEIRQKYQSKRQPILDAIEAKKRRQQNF
The target in assay [3] is Serine/threonine-protein kinase Chk2 (Homo sapiens) (UniProt O96017). The assay can be described thus: Inhibition of CHK2 Lys1 labeling site in human A-375 cells at 0.5 uM by KiNativ Profiling analysis relative to control. Format: cell-based.
Sequence of Serine/threonine-protein kinase Chk2 (Homo sapiens) (O96017 whole entry): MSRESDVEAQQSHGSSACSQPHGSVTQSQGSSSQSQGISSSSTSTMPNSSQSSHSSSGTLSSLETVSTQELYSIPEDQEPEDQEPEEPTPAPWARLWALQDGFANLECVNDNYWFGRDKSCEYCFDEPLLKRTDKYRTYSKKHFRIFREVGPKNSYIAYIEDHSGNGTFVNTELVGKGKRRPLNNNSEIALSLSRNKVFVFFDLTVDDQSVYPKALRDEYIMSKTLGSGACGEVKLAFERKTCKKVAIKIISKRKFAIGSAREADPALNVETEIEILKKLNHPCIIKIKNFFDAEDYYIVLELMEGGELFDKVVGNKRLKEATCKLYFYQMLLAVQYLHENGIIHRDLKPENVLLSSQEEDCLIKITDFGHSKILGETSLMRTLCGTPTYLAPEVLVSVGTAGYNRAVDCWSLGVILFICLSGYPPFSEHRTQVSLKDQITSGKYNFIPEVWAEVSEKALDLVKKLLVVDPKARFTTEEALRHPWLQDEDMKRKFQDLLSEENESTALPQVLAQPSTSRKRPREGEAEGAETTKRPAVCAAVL
In assay [4] the target is Tyrosine-protein kinase Lck (Homo sapiens) (UniProt P06239). The assay can be described thus: Inhibition of LCK (unknown origin) at 1 uM by Ambit Kinomescan binding assay relative to control.
Sequence of Tyrosine-protein kinase Lck (Homo sapiens) (P06239 2-509 limits assumed): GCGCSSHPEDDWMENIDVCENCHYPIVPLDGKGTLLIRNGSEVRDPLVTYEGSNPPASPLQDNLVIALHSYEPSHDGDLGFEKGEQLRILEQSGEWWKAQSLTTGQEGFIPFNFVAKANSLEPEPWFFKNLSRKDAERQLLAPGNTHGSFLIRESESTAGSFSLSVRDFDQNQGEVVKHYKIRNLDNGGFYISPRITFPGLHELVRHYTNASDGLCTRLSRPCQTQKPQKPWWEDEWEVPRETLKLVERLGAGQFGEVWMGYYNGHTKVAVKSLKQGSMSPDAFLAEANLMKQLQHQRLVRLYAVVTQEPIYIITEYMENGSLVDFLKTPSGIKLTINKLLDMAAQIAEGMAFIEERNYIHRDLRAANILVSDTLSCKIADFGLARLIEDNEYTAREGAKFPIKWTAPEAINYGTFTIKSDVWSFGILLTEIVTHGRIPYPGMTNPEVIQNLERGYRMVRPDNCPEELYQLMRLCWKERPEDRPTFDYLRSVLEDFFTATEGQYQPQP
In assay [5] the target is MAP kinase-interacting serine/threonine-protein kinase 1 (Homo sapiens) (UniProt Q9BUB5). Briefly: Inhibition of MKNK1 (unknown origin) at 10 uM by Ambit Kinomescan binding assay.
Sequence of MAP kinase-interacting serine/threonine-protein kinase 1 (Homo sapiens) (Q9BUB5 whole entry, looked up, the tested form may be a part): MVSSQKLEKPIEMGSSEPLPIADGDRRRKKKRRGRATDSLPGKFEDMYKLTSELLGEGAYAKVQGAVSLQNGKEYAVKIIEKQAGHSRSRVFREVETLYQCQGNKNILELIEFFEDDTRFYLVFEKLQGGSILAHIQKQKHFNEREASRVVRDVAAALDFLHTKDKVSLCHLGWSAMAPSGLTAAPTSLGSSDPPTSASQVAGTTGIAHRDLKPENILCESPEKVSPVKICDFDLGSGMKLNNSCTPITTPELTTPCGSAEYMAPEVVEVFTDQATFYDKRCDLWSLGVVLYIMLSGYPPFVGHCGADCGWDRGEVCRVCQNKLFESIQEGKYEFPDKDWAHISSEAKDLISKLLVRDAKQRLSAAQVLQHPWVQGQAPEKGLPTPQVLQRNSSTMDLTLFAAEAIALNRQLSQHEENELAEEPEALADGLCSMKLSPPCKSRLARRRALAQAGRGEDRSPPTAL
In assay [6] the target is Tyrosine-protein kinase JAK1 (Homo sapiens) (UniProt P23458). Briefly: Inhibition of JAK1 Domain 2 ACT labeling site in human Huh-7 cells at 10 uM by KiNativ Profiling analysis relative to control. Format: cell-based.
Sequence of Tyrosine-protein kinase JAK1 (Homo sapiens) (P23458 whole entry, the tested form may be a part): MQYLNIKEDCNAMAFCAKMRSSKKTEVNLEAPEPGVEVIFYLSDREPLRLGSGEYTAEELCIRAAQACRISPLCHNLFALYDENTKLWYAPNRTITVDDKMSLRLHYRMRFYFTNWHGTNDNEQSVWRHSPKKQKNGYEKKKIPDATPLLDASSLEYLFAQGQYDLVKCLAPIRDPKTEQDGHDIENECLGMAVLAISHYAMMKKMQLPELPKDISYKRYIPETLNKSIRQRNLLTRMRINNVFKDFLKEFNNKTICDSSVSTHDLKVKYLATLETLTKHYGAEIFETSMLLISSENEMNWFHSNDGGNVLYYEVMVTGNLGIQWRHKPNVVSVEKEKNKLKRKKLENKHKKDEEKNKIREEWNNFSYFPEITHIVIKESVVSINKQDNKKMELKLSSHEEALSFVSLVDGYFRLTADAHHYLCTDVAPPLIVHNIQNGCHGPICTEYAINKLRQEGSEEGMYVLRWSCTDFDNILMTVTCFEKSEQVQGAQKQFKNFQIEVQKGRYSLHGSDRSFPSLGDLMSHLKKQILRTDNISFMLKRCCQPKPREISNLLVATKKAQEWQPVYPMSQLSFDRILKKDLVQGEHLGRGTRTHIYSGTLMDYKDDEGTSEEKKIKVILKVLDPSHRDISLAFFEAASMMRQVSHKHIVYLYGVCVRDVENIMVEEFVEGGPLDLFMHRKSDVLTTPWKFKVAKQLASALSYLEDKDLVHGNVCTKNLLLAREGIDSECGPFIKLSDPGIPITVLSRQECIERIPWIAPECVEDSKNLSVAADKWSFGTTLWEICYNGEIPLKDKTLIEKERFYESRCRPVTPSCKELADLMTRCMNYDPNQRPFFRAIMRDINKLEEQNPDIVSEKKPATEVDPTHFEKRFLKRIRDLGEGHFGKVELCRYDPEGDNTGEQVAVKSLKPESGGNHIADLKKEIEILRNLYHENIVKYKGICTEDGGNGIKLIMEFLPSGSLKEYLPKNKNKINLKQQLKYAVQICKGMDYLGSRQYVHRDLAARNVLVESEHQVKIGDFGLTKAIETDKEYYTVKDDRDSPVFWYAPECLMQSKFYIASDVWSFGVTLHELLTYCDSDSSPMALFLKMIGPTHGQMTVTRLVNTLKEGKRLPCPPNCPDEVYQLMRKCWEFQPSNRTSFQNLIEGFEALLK
For assay [7], the target named is T2, Serine/threonine-protein kinase Nek9 (Homo sapiens) (UniProt Q8TD19).
T2 sequence (whole entry): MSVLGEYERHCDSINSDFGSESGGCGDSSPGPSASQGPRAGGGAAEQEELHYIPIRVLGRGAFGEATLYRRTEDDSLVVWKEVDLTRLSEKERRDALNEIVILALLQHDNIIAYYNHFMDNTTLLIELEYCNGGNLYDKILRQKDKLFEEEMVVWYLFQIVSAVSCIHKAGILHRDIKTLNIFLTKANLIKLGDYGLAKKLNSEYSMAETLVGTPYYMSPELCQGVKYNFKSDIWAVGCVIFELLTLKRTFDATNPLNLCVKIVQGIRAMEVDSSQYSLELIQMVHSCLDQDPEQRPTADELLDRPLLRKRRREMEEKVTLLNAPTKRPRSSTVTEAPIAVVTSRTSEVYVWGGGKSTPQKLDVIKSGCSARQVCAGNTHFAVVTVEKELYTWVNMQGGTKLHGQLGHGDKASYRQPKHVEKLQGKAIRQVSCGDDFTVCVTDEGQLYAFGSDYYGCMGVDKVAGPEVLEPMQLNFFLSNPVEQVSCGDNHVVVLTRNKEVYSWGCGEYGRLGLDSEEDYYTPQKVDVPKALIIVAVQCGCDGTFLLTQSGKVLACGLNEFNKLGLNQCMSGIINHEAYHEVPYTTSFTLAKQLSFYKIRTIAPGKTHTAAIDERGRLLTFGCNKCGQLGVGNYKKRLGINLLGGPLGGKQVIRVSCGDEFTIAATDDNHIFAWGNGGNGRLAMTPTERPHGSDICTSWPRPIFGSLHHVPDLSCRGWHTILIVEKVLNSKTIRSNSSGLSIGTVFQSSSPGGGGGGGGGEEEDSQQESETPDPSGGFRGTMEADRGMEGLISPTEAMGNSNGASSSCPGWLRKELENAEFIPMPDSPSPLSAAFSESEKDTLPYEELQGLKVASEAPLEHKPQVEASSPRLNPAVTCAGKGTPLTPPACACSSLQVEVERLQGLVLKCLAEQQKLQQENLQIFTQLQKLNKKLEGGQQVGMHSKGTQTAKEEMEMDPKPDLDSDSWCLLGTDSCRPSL
Briefly: Inhibition of NEK9 Lys2 labeling site in human Huh-7 cell lysate at 1 uM by KiNativ Profiling analysis relative to control. In kind it is subcellular.

The target of assay [8] is Protein kinase C alpha type (Homo sapiens) (UniProt P17252). The assay can be described thus: Inhibition of PKCa Lys2 labeling site in human Huh-7 cells at 1 uM by KiNativ Profiling analysis relative to control. Format: cell-based.
Assay [9] concerns the target Cyclin-dependent kinase 9 (Homo sapiens) (UniProt P50750). The assay can be described thus: Inhibition of CDK9 Lys2 labeling site in human Huh-7 cell lysate at 1 uM by KiNativ Profiling analysis relative to control. In kind it is subcellular.

Sequence of Cyclin-dependent kinase 9 (Homo sapiens) (P50750 whole entry): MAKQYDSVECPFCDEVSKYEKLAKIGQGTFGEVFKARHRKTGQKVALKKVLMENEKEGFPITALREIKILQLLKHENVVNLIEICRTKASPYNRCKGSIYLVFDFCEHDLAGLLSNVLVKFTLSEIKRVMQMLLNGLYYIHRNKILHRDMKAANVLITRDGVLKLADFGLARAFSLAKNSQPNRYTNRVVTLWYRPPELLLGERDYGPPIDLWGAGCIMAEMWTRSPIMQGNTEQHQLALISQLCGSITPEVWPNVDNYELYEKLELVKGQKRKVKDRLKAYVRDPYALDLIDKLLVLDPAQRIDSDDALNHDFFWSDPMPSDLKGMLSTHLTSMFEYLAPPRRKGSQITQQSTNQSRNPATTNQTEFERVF

Turning to `CCN1CCN(Cc2ccc(NC(=O)c3ccc(C)c(/C=C/c4cnc5[nH]ccc5c4OC)c3)cc2C(F)(F)F)CC1`, the inhibition in [1] was 2.1%; in assay [2], 14.1%; in [3] it was -4.8%; in assay [4], 0.35%.
As for `CCN1CCN(Cc2ccc(NC(=O)c3ccc(C)c(Oc4ccnc5[nH]ccc45)c3)cc2C(F)(F)F)CC1`, the inhibition result in assay [5] is “inactive”. The inhibition in assay [6] worked out at 41.1%.
On to `CNc1cc(Oc2cc(C(=O)Nc3cc(N4CCN(C)CC4)cc(C(F)(F)F)c3)ccc2C)ncn1`, for which the inhibition is -3.1% in [7], 64.8% in [8] and 11.9% in assay [9].
